Laboratory results published in PubChem BioAssay AID2060330 (Molecular Pharmacology Branch, DTP, NCI, 2025).
Values joined by “and” are separate entries in the source; they are usually repeats but may differ in a detail not shown here. Identical values can stand only once.

Tested on: LG0703-F948-PDC spheroids with HUVEC/MSC, viability
Assay: Anticancer human tumor LG0703-F948-PDC patient-derived lung adenocarcinoma cell line growth inhibition [IpAb]
Conditions: for viability, T/C: stronger effect = lower value
Source text: Combinatorial screen of targeted agents with ipatasertib and abemaciclib in multi-cell type tumor spheroids
A high-throughput screen of multi-cell type tumor spheroids was designed to identify active combinations of targeted small molecules and ipatasertib or abemaciclib. Complex spheroids include a stromal component modeled by human endothelial cells (HUVEC) and fibroblasts modeled by human mesenchymal stem cells (MSCs). The concentration ranges selected for each drug and investigational agent were based upon clinically achievable concentrations if the clinical Cmax of the agent was known.
Compounds. The drugs and investigational agents: ipatasertib (NSC767898), abemaciclib(NSC768073), selumetinib (NSC741078), trametinib (758246), adavosertib (NSC754352), everolimus (NSC733504), sapanisertib (NSC764658), vemurafenib (NSC761431), venetoclax (NSC766270), copanlisib (NSC809693), apelisib (NSC765974), palbociblib (NSC758247), vemurafenib (NSC761431), dabrafenib (NSC764134), ravoxertinib (NSC781343), BMS-387032 (NSC767048), sotorasib (NSC818433), talazoparib (NSC767125) and afursertib (NSC778305), were obtained from the National Cancer Institute (NCI) Developmental Therapeutics Program Chemical Repository. The FDA-approved anticancer drug set is available from the NCI Developmental Therapeutics Program. […] The stock solutions were prepared in dimethyl sulfoxide (DMSO, Sigma-Aldrich, St. Louis, MO, cat. D2650) at 800-fold the tested concentration and stored at -70 degrees C prior to their use. All drugs and investigational agents were tested over a range starting from a high concentration at or near the clinical Cmax and decreasing in half-log increments. If the clinical Cmax for an agent had not been determined, the highest concentration tested was 10 microM.
NCI60 Cell Culture. NCI60 cell lines were obtained from the NCI Developmental Therapeutics Program Tumor Repository. For each lot of cells, the Repository performed Applied Biosystems AmpFLSTR Identifiler testing with PCR amplification to confirm consistency with the published Identifier STR profile for each cell line. Cells were kept in continuous culture for no more than 20 passages. The optimal seeding densities for each of the cell lines at each time point assessed were determined prior to performing the concentration response studies. Briefly, the NCI60 human tumor lines were grown as monolayers in RPMI 1640 medium supplemented with 10% FBS and 2 mmol/L L-glutamine.
An additional 9 lines were from the NCI60 cell line panel including MDA-MB-231 breast carcinoma, MDA-MB-468 breast carcinoma, MCF7 breast carcinoma, Hs578T breast carcinoma, MALME-3M melanoma, SK-MEL-2 melanoma, SK-OV-3 ovarian carcinoma, DU-145 prostate carcinoma, PC-3 prostate carcinoma, all cell lines along with major genetic alterations are listed on Table 2. Pooled donor human umbilical vein endothelial cells (HUVEC, Lonza, cat. CC-2519) and human mesenchymal stem cells (hMSC, Lonza, cat. PT-2501) were purchased from Lonza (Walkersville, MD).
PDMR cell lines were grown in complete medium (DC medium): Dulbecco's modified Eagle's medium (DMEM)/F12 supplemented with 5% fetal bovine serum (FBS), 2 mM L-glutamine, 100 U/mL penicillin and 100 µg/ml streptomycin, 0.4 µg/ml hydrocortisone, 10 ng/ml epidermal growth factor (EGF) recombinant human protein, 24 µg/mL adenine, and 0.1 mg/mL primocin. During culture from frozen stock vials, PDMR cells were cultured in the same medium containing 10 µM Y-27632 (see Table 3). The PDCs were cultured in complete DMEM/F12 media without 10 microM Y-27632 dihydrochloride for at least two passages prior to the screen. The pooled donor HUVEC and hMSC were cultured in endothelial cell growth medium 2 (PromoCell, Heidelberg, Germany, cat. C-22011) and mesenchymal stem cell growth medium 2 (PromoCell, cat. C-28009), respectively. For all experiments, HUVEC and hMSC were used at passages </=5.
[…]
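Further: spheroids exposed to compounds for seven days before readout.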
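Wherever viability, T/C is given: T/C percent relative to DMSO vehicle wells set as 100% viability.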

C=CC(=O)N1CCN(c2nc(=O)n(-c3c(C)ccnc3C(C)C)c3nc(-c4c(O)cccc4F)c(F)cc23)C(C)C1 (centres undefined)
viability, T/C (compound 0.0316 µM): 110% and 106%
viability, T/C (compound 0.1 µM): 108% and 103%
viability, T/C (compound 0.316 µM): 119%
viability, T/C (compound 1 µM): 113% and 129%
viability, T/C (compound 3.16 µM): 108% and 119%
viability, T/C (compound 10 µM): 65.2% and 83%
IC50 (curve of compound): > 10000 nM

C=CCn1c(=O)c2cnc(Nc3ccc(N4CCN(C)CC4)cc3)nc2n1-c1cccc(C(C)(C)O)n1
viability, T/C (compound 0.0316 µM): 108% and 109%
viability, T/C (compound 0.1 µM): 107% and 101%
viability, T/C (compound 0.316 µM): 96.2% and 81.3%
viability, T/C (compound 1 µM): 58% and 55.1%
viability, T/C (compound 3.16 µM): 19.6% and 15.7%
viability, T/C (compound 10 µM): 6.89% and 4.96%
IC50 (curve of compound): 1280 nM and 1040 nM

CC(=O)c1c(C)c2cnc(Nc3ccc(N4CCNCC4)cn3)nc2n(C2CCCC2)c1=O
viability, T/C (compound 0.000949 µM): 115% and 112%
viability, T/C (compound 0.003 µM): 112% and 98.4%
viability, T/C (compound 0.00949 µM): 103% and 102%
viability, T/C (compound 0.03 µM): 101% and 87.4%
viability, T/C (compound 0.0949 µM): 103% and 73.3%
viability, T/C (compound 0.3 µM): 84% and 77.2%
IC50 (curve of compound): > 300 nM

CC(C)(C)c1cnc(CSc2cnc(NC(=O)C3CCNCC3)s2)o1
viability, T/C (compound 0.00949 µM): 105% and 90.3%
viability, T/C (compound 0.03 µM): 84% and 77.8%
viability, T/C (compound 0.0949 µM): 58.7% and 44.8%
viability, T/C (compound 0.3 µM): 0.71% and 0.81%
viability, T/C (compound 0.949 µM): 0.43% and 0.49%
viability, T/C (compound 3 µM): 0.25% and 0.28%
IC50 (curve of compound): 108 nM and 76.9 nM

CC(C)NCC(C(=O)N1CCN(c2ncnc3c2C(C)CC3O)CC1)c1ccc(Cl)cc1 (centres undefined)
viability, T/C (compound 0.1 µM): 81% [middle of 13 runs]
viability, T/C (compound 0.316 µM): 64.2% [middle of 13 runs]
viability, T/C (compound 3.16 µM): 44.4% [middle of 13 runs]
viability, T/C (compound 10 µM): 40.4% [middle of 13 runs]

CC(C)n1nc(-c2ccc3oc(N)nc3c2)c2c(N)ncnc21
viability, T/C (compound 0.000316 µM): 87.8% and 89.9%
viability, T/C (compound 0.001 µM): 66.2% and 83.2%
viability, T/C (compound 0.00316 µM): 52% and 57.7%
viability, T/C (compound 0.01 µM): 32.2% and 35.2%
viability, T/C (compound 0.0316 µM): 19.4% and 23.2%
viability, T/C (compound 0.1 µM): 19.6% and 22.4%
IC50 (curve of compound): 2.95 nM and 4.75 nM

CC1(C)CCC(CN2CCN(c3ccc(C(=O)NS(=O)(=O)c4ccc(NCC5CCOCC5)c([N+](=O)[O-])c4)c(Oc4cnc5[nH]ccc5c4)c3)CC2)=C(c2ccc(Cl)cc2)C1
viability, T/C (compound 0.0316 µM): 107% and 100%
viability, T/C (compound 0.1 µM): 106% and 101%
viability, T/C (compound 0.316 µM): 105% and 90.3%
viability, T/C (compound 1 µM): 101% and 95.1%
viability, T/C (compound 3.16 µM): 69.9% and 84.5%
viability, T/C (compound 10 µM): 14.1% and 13.4%
IC50 (curve of compound): 4740 nM and 5530 nM

CCCS(=O)(=O)Nc1ccc(F)c(C(=O)c2c[nH]c3ncc(-c4ccc(Cl)cc4)cc23)c1F
viability, T/C (compound 0.0316 µM): 98.2% and 112%
viability, T/C (compound 0.1 µM): 99.7% and 110%
viability, T/C (compound 0.316 µM): 91.5% and 92.6%
viability, T/C (compound 1 µM): 105% and 111%
viability, T/C (compound 3.16 µM): 98.9% and 101%
viability, T/C (compound 10 µM): 76.2% and 71.7%
IC50 (curve of compound): > 10000 nM

CCN1CCN(Cc2ccc(Nc3ncc(F)c(-c4cc(F)c5nc(C)n(C(C)C)c5c4)n3)nc2)CC1
viability, T/C (compound 0.0316 µM): 97% [middle of 13 runs]
viability, T/C (compound 0.1 µM): 91% [middle of 12 runs]
viability, T/C (compound 0.316 µM): 83.5% [middle of 13 runs]
IC50 (compound alone, run of 06/01/2021): > 1000 nM

COc1c(OCCCN2CCOCC2)ccc2c3n(c(=NC(=O)c4cnc(N)nc4)nc12)CCN3
viability, T/C (compound 0.00316 µM): 96.2% and 95.4%
viability, T/C (compound 0.01 µM): 78.3% and 87.8%
viability, T/C (compound 0.0316 µM): 56.1% and 63.4%
viability, T/C (compound 0.1 µM): 20.8% and 24%
viability, T/C (compound 0.316 µM): 6.09% and 7.35%
viability, T/C (compound 1 µM): 3.7% and 4.95%
IC50 (curve of compound): 35.6 nM and 46.5 nM
